Measurements: patent publication US20260284062A1 (Konstantin Pavlovich GARYAEV, priority 2023, published 2026)

Tests used:
[1] = test system: myocardial infarction, ischemic stroke and peripheral thrombosis; details: oral antiplatelet therapy with acetylsalicylic acid and clopidogrel; cited from earlier work
[2] = 0.5% Novocaine, 5.0-10.0 ml, in medicinal mixture administered into the recommended sites; cited from earlier work
[3] = Patient history of statin treatment (tolerability); format: in vivo, human; details: history of patient M. (Example 1)

**Q.** Which “reduction of the risk of myocardial infarction, ischemic stroke and peripheral thrombosis” value [1] does the source give for `CC(=O)Oc1ccccc1C(=O)O` [acetylsalicylic acid] here?
**A.** 20-25%

**Q.** Which “reduction of the risk of myocardial infarction, ischemic stroke and peripheral thrombosis” value [1] does the source give for `COC(=O)[C@H](c1ccccc1Cl)N1CCc2sccc2C1` [clopidogrel] here?
**A.** 20-25%

**Q.** With `CCN(CC)CCOC(=O)c1ccc(N)cc1` [Novocaine] as the compound, how does the undesirable effects [2] read?
**A.** reduction of arterial pressure up to collapse, dizziness, headache, arrhythmia

**Q.** For `CCC(C)(C)C(=O)O[C@H]1C[C@@H](C)C=C2C=C[C@H](C)[C@H](CC[C@@H]3C[C@@H](O)CC(=O)O3)[C@H]21` [simvastatin], which “tolerability of earlier treatment” value [3] is on record?
**A.** discontinued due to side effects
